Common to all, as to assay type: functional
Assay [1] can be described thus: Evaluated for substrate specificity of betaine uptake in salt-stressed Sinorhizobium meliloti. compound to substrate ratio 1:1. More on the design: unit not given here.
Assay [2] in a line: Evaluated for substrate specificity of betaine uptake in salt-stressed Sinorhizobium meliloti. compound to substrate ratio 100:1.
The nature of assay [3]: Evaluated for substrate specificity of betaine uptake in salt-stressed Sinorhizobium meliloti. compound to substrate ratio 10:1.
Assay [4] deals with Sinorhizobium meliloti. Briefly: Maximal attenuance reached in the stationary phase was reported against Sinorhizobium meliloti 102F34 in Lactate aspartate(LAS) minimal medium (without addition of NaCl).
For assay [5], the system named is Sinorhizobium meliloti. Briefly: Maximal attenuance reached in the stationary phase was reported against Sinorhizobium meliloti 102F34 in Lactate aspartate(LAS) minimal medium (with addition of NaCl).
Assay [6] deals with Sinorhizobium meliloti. In words: Tested for effect on doubling time of growth of Sinorhizobium meliloti 102F34 in Lactate aspartate(LAS) minimal medium (without addition of NaCl).
The subject of assay [7] is Sinorhizobium meliloti. In words: Tested for effect on doubling time of growth of Sinorhizobium meliloti 102F34 in Lactate aspartate(LAS) minimal medium (with addition of NaCl).

These results are taken from ChEMBL document CHEMBL1131697, “Toxicity and osmoprotective activities of analogues of glycine betaine obtained by solid phase organic synthesis towards Sinorhizobium meliloti” (1999).

For the molecule `C[S+](C)CC(=O)O.[Cl-]`, in assay [1], the Ratio is 52. For the same molecule, in assay [2], the Substrate specificity of betaine uptake came to 98. Moreover, the Betaine uptake (substrate specificity) in assay [3] was determined as 90. For the same molecule, the Dmax in assay [4] and in assay [5] was 0.5 throughout. The figures for the DT in assay [6] and in assay [7] were 35 h and 32 h, respectively.

`CC[N+](C)(C)CC(=O)O.[Cl-]`: the Ratio in assay [1] was determined as 35. Further, in assay [2], the Substrate specificity of betaine uptake came out at 96. Moreover, the Betaine uptake (substrate specificity) in assay [3] worked out at 79. Also, the Dmax in assay [4] is recorded as 0.7; in assay [5] it was 2. Moreover, the DT stood at 35 h in assay [6] and 11 h in assay [7].

As for `C[N+](C)(C)CC(=O)O` [BETAINE], in assay [1], the Ratio turned out to be 80. Also, the Substrate specificity of betaine uptake in assay [2] was determined as 99. Also, in assay [3], the Betaine uptake (substrate specificity) was determined as 94. Also, the Dmax was 2 in assay [4] and 2.1 in assay [5]. Besides, the DT in assay [6] was 5.5 h; in assay [7], 7 h.

For `C[N+]1(CC(=O)O)CCCC1.[Cl-]`, in assay [1], the Ratio was determined as 20. In assay [2], the Substrate specificity of betaine uptake was 95. In addition, the Betaine uptake (substrate specificity) in assay [3] came to 61. Further, the Dmax in assay [4] was found to be 0.6; in assay [5] it was 2.1. The DT stood at 45 h in assay [6] and 11 h in assay [7].

For `CC(C)[N+](C)(C)CC(=O)O.[Cl-]`, the Ratio in assay [1] came out at 0. Further, the Substrate specificity of betaine uptake in assay [2] worked out at 45. In addition, the Betaine uptake (substrate specificity) in assay [3] stood at 4. The Dmax in assay [4] came to 1.8; in assay [5], 0.9. Also, the values for the DT in assay [6] and in assay [7] were 6.9 h and 20 h, respectively.

As for `CC[N+](C)(CC)CC(=O)O.[Cl-]`, in assay [1], the Ratio was 4. Also, the Substrate specificity of betaine uptake in assay [2] amounted to 57. In assay [3], the Betaine uptake (substrate specificity) worked out at 10. Also, the Dmax in assay [4] amounted to 1.6; in assay [5], 2. The results for the DT in assay [6] and in assay [7] were 9 h and 13 h, respectively.

For `C[N+]1(CC(=O)O)CCOCC1.[Cl-]`, the Ratio in assay [1] was determined as 1. The Substrate specificity of betaine uptake in assay [2] was 43. Also, the Betaine uptake (substrate specificity) in assay [3] stood at 7. Further, the Dmax is reported as 1 in assay [4] and 1.9 in assay [5]. The DT in assay [6] is 28 h; in assay [7], 13 h.

As to `CCCC[N+](C)(C)CC(=O)O.[Cl-]`, in assay [1], the Ratio turned out to be 1. In addition, in assay [2], the Substrate specificity of betaine uptake amounted to 23. Besides, in assay [3], the Betaine uptake (substrate specificity) was 10. Also, the Dmax in assay [4] is recorded as 1.9; in assay [5] it was 0.9. Besides, the DT in assay [6] came out at 6.4 h; in assay [7], 20 h.

Turning to `CC[N+](CC)(CC)CC(=O)O.[Cl-]`, the Ratio in assay [1] amounted to 0. Further, the Substrate specificity of betaine uptake in assay [2] was 27. Also, in assay [3], the Betaine uptake (substrate specificity) is 4. Further, the Dmax turned out to be 1.8 in assay [4] and 0.9 in assay [5]. The results for the DT in assay [6] and in assay [7] were 7.9 h and 18 h, respectively.
